# Source: US20050090524A1, “Novel adamantane derivatives” (priority 2002, published 2005)
# Counter-ions that a name gives are not always drawn.
# Biological target: T1, P2X7 receptor (Homo sapiens, UniProt Q99572)
# T1 construct: 200 μl of a suspension of THP-1 cells; endogenous in cells; host or cells: THP-1 cells
# T1 sequence (Q99572 1-595): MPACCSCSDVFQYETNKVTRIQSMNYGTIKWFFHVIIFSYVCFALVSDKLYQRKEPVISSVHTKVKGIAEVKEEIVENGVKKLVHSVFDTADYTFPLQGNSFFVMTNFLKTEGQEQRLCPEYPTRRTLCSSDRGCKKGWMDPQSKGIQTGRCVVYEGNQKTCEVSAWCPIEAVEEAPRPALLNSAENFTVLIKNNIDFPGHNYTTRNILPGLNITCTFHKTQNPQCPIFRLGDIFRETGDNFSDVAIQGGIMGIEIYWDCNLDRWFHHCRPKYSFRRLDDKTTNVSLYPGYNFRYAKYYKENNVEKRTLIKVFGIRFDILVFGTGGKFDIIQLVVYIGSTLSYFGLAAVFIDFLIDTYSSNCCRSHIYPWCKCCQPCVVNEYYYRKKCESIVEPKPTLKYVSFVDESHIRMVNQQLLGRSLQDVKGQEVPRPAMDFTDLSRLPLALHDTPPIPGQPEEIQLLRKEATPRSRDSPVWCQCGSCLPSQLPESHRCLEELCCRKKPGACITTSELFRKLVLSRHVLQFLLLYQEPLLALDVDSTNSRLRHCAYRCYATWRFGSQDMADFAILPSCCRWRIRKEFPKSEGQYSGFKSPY
# Assay: P2X7 receptor antagonist test: bbATP-induced ethidium bromide fluorescence in THP-1 cells
# Assay type: cell-based
# Conditions: bbATP agonist, 37° C. for one hour, negative logarithm of concentration reducing bbATP agonist activity by 50%
# Source text: Certain compounds such as benzoylbenzoyl adenosine triphosphate (bbATP) are known to be agonists of the P2X7 receptor, effecting the formation of pores in the plasma membrane (Drug Development Research (1996), 37(3), p.126). Consequently, when the receptor is activated using bbATP in the presence of ethidium bromide (a fluorescent DNA probe), an increase in the fluorescence of intracellular DNA-bound ethidium bromide is observed. The increase in fluorescence can be used as a measure of P2X7 receptor activation and therefore to quantify the effect of a compound on the P2X7 receptor.
# In this manner, each of the title compounds of the Examples was tested for antagonist activity at the P2X7 receptor. Thus, the test was performed in 96-well flat bottomed microtitre plates, the wells being filled with 250 μl of test solution comprising 200 μl of a suspension of THP-1 cells (2.5×10^6 cells/ml) containing 10^−4M ethidium bromide, 25 μl of a high potassium buffer solution containing 10^−5M bbATP, and 25 μl of the high potassium buffer solution containing 3×10^−5M test compound. The plate was covered with aplastics sheet and incubated at 37° C. for one hour. The plate was then read in a Perkin-Elmer fluorescent plate reader, excitation 520 nm, emission 595 nm, slit widths: Ex 15 nm, Em 20 nm. For the purposes of comparison, bbATP (a P2X7 receptor agonist) and pyridoxal 5-phosphate (a P2X7 receptor antagonist) were used separately in the test as controls. From the readings obtained, a pIC50 figure was calculated for each test compound, this figure being the negative logarithm of the concentration of test compound necessary to reduce the bbATP agonist activity by 50%.
row,IC50 [nM],Structure (SMILES)
1,8.91,"O=C(CC12CC3CC(CC(C3)C1)C2)Nc1cccc2nc(NCCCO)ccc12 [Example 6, 2-(1-Adamantyl)-N-{2-[(3-hydroxypropyl)amino]quinolin-5-yl}acetamide]"
2,79.4,"O=C(CC12CC3CC(CC(C3)C1)C2)Nc1cccc2cnccc12 [Example 160, 2-(1-Adamantyl)-N-isoquinolin-5-ylacetamide]"
3,17.8,"Cc1ccc2nc(CCNCCCO)ccc2c1NC(=O)CC12CC3CC(CC(C3)C1)C2 [Example 205, 2-(1-Adamantyl)-N-(2-{2-[(3-hydroxypropyl)amino]ethyl}-6-methylquinolin-5-yl)acetamide Dihydrochloride]"

# The remaining lines, values behind:
row,Structure (SMILES),IC50 [nM]
1,"CNCCCc1ccc2c(C(=O)NCC34CC5CC(CC(C5)C3)C4)c(Cl)ccc2n1 [Example 167, N-(1-Adamantylmethyl)-6-chloro-2-[3-(methylamino)propyl]quinoline-5-carboxamide Sesquihydrochloride]",5.01
2,"O=C(NCC12CC3CC(CC(C3)C1)C2)c1cc(CCCNCCCO)nc2ccccc12 [Example 168, N-(1-Adamantylmethyl)-2-{3-[(3-hydroxypropyl)amino]propyl}quinoline-4-carboxamide Benzoic Acid Salt]",25.1
3,"O=C(NCC12CC3CC(CC(C3)C1)C2)c1c(Cl)ccc2nc(CN3CCNCC3)ccc12 [Example 170, N-(1-Adamantylmethyl)-6-chloro-2-(piperazin-1-ylmethyl)quinoline-5-carboxamide Hydrochloride]",26.3
4,"O=C(CC12CC3CC(CC(C3)C1)C2)Nc1c(Cl)ccc2nc(CN3CCN(CCO)CC3)ccc12 [Example 196, 2-(1-Adamantyl)-N-(6chloro-2-{[4-(2-hydroxyethyl)piperazin-1-yl]methyl}quinlolin-5-yl)acetamide]",18.6
5,"CNCCCN(C)c1ccc2c(C(=O)NCC34CC5CC(CC(C5)C3)C4)c(Cl)ccc2n1 [Example 208, N-(1-Adamantylmethyl)-6-chloro-2-{methyl[3-(methylamino)propyl]amino}quinoline-5-carboxamide]",35.5
